According to patent US10561692B2, “Allergy-inhibiting sea grape extract, its preparation method and application thereof” (Teh Fong Min International Co., Ltd., priority 2016, dated 2020):

Tested on: degranulation of cells to release β-hexosaminidase
Assay: β-hexosaminidase release from cells, determined by ELISA (allergy triggering / allergy induction)
Format: cell-based
Conditions: Ctr results of FIG. 1, stimulant alone
Method: […] Comparisons of the sea grape extract (I) alone group, refined sea grape (I) alone group and the control group.
Calcium ionophore A23187 stimulates degranulation of cells to release the allergic mediator, β-hexosaminidase, the concentration of β-hexosaminidase is determined by enzyme-linked immunosorbent assay (ELISA).

## CNc1ccc2oc(C[C@H]3O[C@@]4(CC[C@H]3C)O[C@H]([C@H](C)C(=O)c3ccc[nH]3)[C@H](C)C[C@H]4C)nc2c1C(=O)O [Calcium ionophore A23187]
  release of β-hexosaminidase: induces release
